Like-named read-outs stand apart in the source and are kept apart here.

Assay [1] deals with cells of the human embryonic stem cell line H1.
From the text: At Stage 4 and subsequent cultures, mRNA was collected for PCR analysis of relevant pancreatic endoderm/endocrine genes. Total RNA was extracted with the RNeasy® Mini Kit (Qiagen; Valencia, Calif.) and reverse-transcribed using a High Capacity cDNA Reverse Transcription Kit (Applied Biosystems, Foster City, Calif.) according to manufacturers' instructions. cDNA was amplified using Taqman Universal Master Mix and Taqman Gene Expression Assays which were pre-loaded onto custom Taqman Arrays (Applied Biosystems).
Cells were then cultured for an additional day in MCDB-131 medium supplemented with 2% fatty acid-free BSA, 0.0012 g/ml sodium bicarbonate, 1× GlutaMax™, 4.5 mM D-Glucose, 100 ng/ml GDF8, and 0.1 μM MCX compound. […]
Assay [2] shares this test system. The settings on record: air-liquid interface, 1000 nM ALK5 inhibitor in Stages 5 and 6.
Method: Cells of the human embryonic stem cell line H1 (passage 40) were seeded as single cells at 1×10^5 cells/cm^2 on […] ™ (1:30 dilution; BD Biosciences, NJ)-coated dishes in a media comprising DMEM-F12 (Invitrogen, Ca), GlutaMax™ (1:100 dilution, Invitrogen), 0.25 mM ascorbic acid (Sigma, MO), 100 ng/ml of FGF2 (R & D systems, MN), 1 ng/ml of TGF-β (R & D systems), ITS-X (1:100 dilution), 2% fatty-acid free BSA (Lampire, PA), and 20 ng/ml of IGF-1 (R & D systems), supplemented with 10 μM of Y27632 (Rock inhibitor, Catalog No. Y0503, Sigma-Aldrich). Forty-eight hours post-seeding, cultures were washed in incomplete PBS (phosphate buffered saline without Mg or Ca). The cells were then differentiated according to the following protocol: • a. Stage 1 (3 days): Cells were cultured for one day in MCDB-131 medium (Invitrogen Catalog No. 10372-019) supplemented with 2% fatty acid-free BSA (Proliant, Catalog No. 68700); 0.0012 g/ml sodium bicarbonate (Sigma-Aldrich, Catalog No. S3187); 1× GlutaMax™ (Invitrogen, Catalog No. 35050-079); 4.5 mM D-glucose (Sigma-Aldrich, Catalog No. G8769); 100 ng/ml GDF8 (R&D Systems); and 1 μM MCX compound. Cells were then cultured for an additional day in MCDB-131 medium supplemented with: 2% fatty acid-free BSA; 0.0012 g/ml sodium bicarbonate; 1× GlutaMax™; 4.5 mM D-Glucose; 100 ng/ml GDF8; and 0.1 μM MCX compound. […]
Assay [3] has the same test system. The source holds these as a separate data set.
Method: Cells of the human embryonic stem cell line H1 (passage 40) were seeded as single cells at 1×10^5 cells/cm^2 on […] ™ (1:30 dilution; BD Biosciences, NJ)-coated dishes or Matrigel-coated filter inserts (Millipore PIHT 30R 48) in a media comprising of DMEM-F12 (Invitrogen, Ca), Glutamax (1:100 dilution, Invitrogen), 0.25 mM ascorbic acid (Sigma, MO), 100 ng/ml of FGF2 (R & D systems, MN), 1 ng/ml of TGF-B (R & D systems), ITS-X (1:100 dilution), 2% fatty-acid free BSA (Lampire, PA), and 20 ng/ml of IGF-1 (R & D systems), supplemented with 10 μM of Y27632 (Rock inhibitor, Catalog No. Y0503, SigmaAldrich, St. Louis, Mo.). Forty-eight hours post seeding, cultures were washed in incomplete PBS (phosphate buffered saline without Mg or Ca). The cells were then differentiated according to the following protocol: • a) Stage 1 (3 days): Cells were cultured for one day in MCDB-131 medium (Invitrogen Catalog No. 10372-019) supplemented with 2% fatty acid-free BSA (Proliant Catalog No. 68700), 0.0012 g/ml sodium bicarbonate (SigmaAldrich Catalog No. S3187), 1× GlutaMax™ (Invitrogen Catalog No. 35050-079), 4.5 mM D-Glucose (SigmaAldrich Catalog No. G8769), 100 ng/ml GDF8 (R&D Systems) and 1 μM MCX compound. Cells were then cultured for an additional day in MCDB-131 medium supplemented with 2% fatty acid-free BSA, 0.0012 g/ml sodium bicarbonate, 1× GlutaMax™, 4.5 mM D-Glucose, 100 ng/ml GDF8, and 0.1 μM MCX compound. […]
Assay [4] has the same test system. The settings on record: air-liquid interface; mRNA at Stage 6 day 5 and day 8.
Assay [5] has the same test system. As to the kind of experiment: Real-time PCR of Stage 6 cells at the air-liquid interface with gamma secretase inhibitor XX (Example 12). The assay is classed as cell-based. The settings on record: 100 nM to 5000 nM at Stage 6; mRNA at Stage 6 day 4 and day 8. As to the method: This example highlights that NOTCH inhibitors, such as gamma secretase inhibitors, further enhance maturation markers of β cells while retaining expression of NKX6.1.
At Stage 6, various doses (100 nM to 5000 nM) of gamma Secretase inhibitor XX (EMD, #565789) were tested. mRNA was collected at Stage 6 day 4 and Stage 6 day 8. FIG. 21 depicts the PCR data for key β cell maturation markers along with pancreatic progenitor markers.
For orientation: In qPCR the cycle at which signal appears reflects the starting amount.

With `Cc1cccc(-c2[nH]ncc2-c2ccc3ncccc3n2)n1` [ALK5 inhibitor II], the “insulin expression at Stage 6 as compared to Stage 5” value in assay [1] (cultures at the air-liquid interface) is given as “enhancement”; in assay [1] (planar cultures treated at Stage 5 and Stage 6) it was “drop”. In assay [2], the expression of glucagon entry is “significantly enhanced”. For the same molecule, the expression of insulin entry in assay [2] is given as “significantly enhanced”. For the same molecule, the “co-expression of NKX6.1 and chromogranin-A (immunostaining)” value in assay [3] (Stage 6 cells at the air-liquid interface, 1 micro molar inhibitor) was “co-expression of NKX6.1 and chromogranin-A”. The “number of NKX6.1 positive cells co-expressing insulin or chromogranin-A” value in assay [3] (filter inserts at the air-liquid interface) is reported as “significantly enhanced”; in assay [3] (same protocol on traditional monolayer cultures), “failed to show significant numbers”. For the same molecule, in assay [4], the “expression of MAFA on removal of the inhibitor at Stage 6” value is recorded as “dramatic drop”.

On to `C[C@H](NC(=O)Cc1cc(F)cc(F)c1)C(=O)N[C@@H]1C(=O)N(C)c2ccccc2-c2ccccc21` [gamma Secretase inhibitor XX], for which, in assay [5], the Amylin expression entry is recorded as “significantly upregulated”, the MAFA expression entry is given as “significantly upregulated”, the NKX6.1 expression result is recorded as “not significantly affected” and the PTF1a expression result is listed as “significantly down regulated”. In addition, in assay [5], the SOX9 expression result is reported as “significantly down regulated” and the insulin expression result is given as “significantly upregulated”.

Values taken from US10344264B2, “Culturing of human embryonic stem cells at the air-liquid interface for differentiation into pancreatic endocrine cells” (Janssen Biotech, Inc., priority 2012, dated 2019).
